Test results taken from patent US4578400A, “Therapeutic composition and method for treatment of cardiovascular diseases” (priority 1982, dated 1986).

Legend:
[1] = system: chloroform-induced arrhythmia (ventricular fibrillation); test: Effect on chloroform-induced arrhythmia; format: in vivo, male ddy mice; settings: for Percent occurrence of ventricular fibrillation: 15 min before chloroform, control 100
Excerpt: When they stopped breathing, they were thoracotomized to examine the occurrence of ventricular fribrillation. The results are noted in Table 2 as percent occurrence of ventricular fibrillation.

[2] = system: ventricular fibrillation after coronary artery ligation; test: Antiarrhythmic effects on myocardial infarction (coronary ligation); format: in vivo, dogs; settings: for Threshold level for inducing ventricular fibrillation, 30 min after ligation: before ligation = 100, control 41
Excerpt: Antiarrhythmic effects on myocardial infarction
The method described by Shinohara (Jap. Circul. J., 32, 1269-1281, 1968) was used. Dogs were divided into groups of 5 animals, anesthetized with intravenous pentobarbital and were thoracotomized under artificial respiration, and a platinum bipolar electrode was inserted on the wall of the right atrium. Then the sinus node was crushed and the animals were subjected to pacing (2.5 Hz, 3 msec, 3.5-8 V) with an electronic stimulator. The left anterior descending coronary artery was doubly ligated at a site 2 cm away from its origin (A. S. Harris, Circulation, 1, 1318, 1950). Then 5--HDA--Na and lidocaine were injected into the femoral vein of the respective dogs. Using an electrode inserted in an ischemic zone in the left ventricle, the animals were given 15 to 20 successive electrical shocks before the ligation and 30 minutes after the ligation and administration. The threshold level necessary for inducing ventricular fibrillation was determined for each group of animals and shown in Table 4, with the values before the ligation taken as 100.

[3] = molecular target: T1, 3-hydroxy-3-methylglutaryl coenzyme A (HMG-Co A) reductase (Rattus norvegicus, UniProt P51639); test: Inhibition of HMG-CoA reductase activity; format: biochemical, rat (liver microsome); settings: read-out: IC30 (amount necessary for inhibiting the enzymatic activity by 30%)
T1 sequence (P51639 1-887): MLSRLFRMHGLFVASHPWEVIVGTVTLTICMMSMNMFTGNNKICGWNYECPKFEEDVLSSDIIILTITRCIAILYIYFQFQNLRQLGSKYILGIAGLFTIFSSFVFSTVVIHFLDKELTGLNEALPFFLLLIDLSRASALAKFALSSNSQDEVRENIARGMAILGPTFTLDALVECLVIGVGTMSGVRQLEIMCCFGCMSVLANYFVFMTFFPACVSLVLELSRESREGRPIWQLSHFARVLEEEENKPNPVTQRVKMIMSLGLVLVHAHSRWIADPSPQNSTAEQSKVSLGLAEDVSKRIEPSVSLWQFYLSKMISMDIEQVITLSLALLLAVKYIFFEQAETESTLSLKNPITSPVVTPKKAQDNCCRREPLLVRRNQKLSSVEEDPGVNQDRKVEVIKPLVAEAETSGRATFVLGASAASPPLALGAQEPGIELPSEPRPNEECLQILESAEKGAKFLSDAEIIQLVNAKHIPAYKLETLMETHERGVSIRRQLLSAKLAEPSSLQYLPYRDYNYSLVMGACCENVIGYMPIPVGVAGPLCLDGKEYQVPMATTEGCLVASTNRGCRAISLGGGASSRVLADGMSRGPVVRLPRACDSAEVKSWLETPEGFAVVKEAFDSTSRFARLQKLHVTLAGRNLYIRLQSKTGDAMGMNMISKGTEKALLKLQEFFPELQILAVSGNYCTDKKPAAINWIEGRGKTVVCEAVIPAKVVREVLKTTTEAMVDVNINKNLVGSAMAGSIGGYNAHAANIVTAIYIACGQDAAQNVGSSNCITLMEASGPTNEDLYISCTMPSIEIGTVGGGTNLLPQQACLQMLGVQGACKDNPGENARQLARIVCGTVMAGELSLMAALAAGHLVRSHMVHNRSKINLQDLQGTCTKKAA
Excerpt: Inhibition of the activity of 3-hydroxy-3-methylglutaryl coenzyme A (HMG-Co A) reductase

[4] = Lowering serum lipid levels in Triton-induced hyperlipidemic rats; format: in vivo, male Wistar rats
Method: After 10 hours, blood samples were drawn to determine the serum levels of total cholesterol and triglyceride.

[5] = Lowering serum cholesterol levels in hyperlipidemic rabbits; format: in vivo, male Japanese white rabbits; settings: 100 mg/kg oral daily for 7 days
Excerpt: Male Japanese white rabbits weighing about 2.5 kg were fed on a solid diet containing 1% cholesterol (RC-4, Nippon Crea Co., Ltd.) for 10 weeks until hypercholesterolemia fully developed. The rabbits were then divided into groups of 5 animals, and 5--HDA--Na or δ-DL was orally admininistered daily for 7 days, either as a solution or as an emulsion in 5% aqueous arabic gum. Three hours after the last administration, blood was drawn to determine the serum level of cholesterol.

[6] = system: myocardial mitochondria; test: Inhibition of the decrease in respiratory capacity of myocardial mitochondria; format: biochemical, male Wistar rats; settings: for ATP production rate: normal 515, defective 204, *P < 0.05
Method: Inhibition of the decrease in respiratory capacity of myocardial mitochondria
According to the method of Hagiwara (Biochem. Biophys. Acta, 46, 134-142, 1961), mitochondria fractions were prepared from the myocardium isolated from male Wistar rats weighing about 300 g. The respiratory capacity of the mitochondria was measured by polarography with an oxygen electrode (TA-100, Yanagimoto), with sodium glutamate and ADP being successively added to give final concentrations of 50 mM and 4 mM, respectively. Defective mitochondria were prepared by leaviang the mitochondria fractions at 0° C. for 24 hours, and 5--HDA--Na was added to determine its ability to inhibit the decrease in the respiratory capacity of the myocardial mitochondria, which is proportional to the rate of ATP production.

[7] = Solubility (physicochemical properties, Table 1)
[8] = 100 mg/kg oral, four times, against control, 10 hours after Triton WR-1339, *P < 0.05

In the case of CCCCCC(O)CCCC(=O)[O-].[Na+] (centres unmarked), the “Percent occurrence of ventricular fibrillation” value ([1]; 50 mg/kg, oral) is reported as 50, the “anti-arrhythmic potency compared with lidocaine (in words)” value ([1]; 100 mg/kg oral vs lidocaine 10 mg/kg i.p.) is reported as “more potent than lidocaine” and the “anti-arrhythmic effects (in words)” value ([1]; 100 mg/kg, oral) is reported as “significant anti-arrhythmic effects”. The “Percent occurrence of ventricular fibrillation” value ([1]; 100 mg/kg, oral, *P < 0.05) was 30, the “Threshold level for inducing ventricular fibrillation, 30 min after ligation” value (“Threshold level … after ligation” below) ([2]; 0.3 mg/kg i.v.) was 67 and the “Threshold level … after ligation” value ([2]; 1.0 mg/kg i.v., *P < 0.05) was 70. For the same compound, the “Threshold level … after ligation” value ([2]; 3.0 mg/kg i.v., *P < 0.05) was 79, the “threshold level for inducing ventricular fibrillation (in words)” value ([2]; after coronary ligation, i.v.) was “increased in a dose-dependent manner” and the IC30 [3] was 100 µM. For the same compound, the “inhibition rate, total cholesterol (serum)” value [4, 8] was 20%, the “inhibition rate, triglyceride (serum)” value [4, 8] was 15% and the “antilipidemic effects compared with Clofibrate (in words)” value ([4]; 100 mg/kg, oral) was “equipotent to or stronger than the effect of the known anti-lipidemic agent, Clofibrate”. For the same compound, the “serum level of total cholesterol (in words)” value [5] was “lowered the serum level of total cholesterol”, the Total serum cholesterol ([5]; 3 h after last administration, control 1,394, *P < 0.05) was 1,165 mg/dl and the “decrease in ATP production in defective mitochondria (in words)” value ([6]; defective mitochondria) was “significantly inhibited”. For the same compound, the ATP production rate ([6]; defective mitochondria + 10^-4 M) was 265 mM/mg-protein/min, the ATP production rate ([6]; defective mitochondria + 10^-5 M) was 220 mM/mg-protein/min and the solubility in acetone ([7]; acetone) was “easily soluble”. For the same compound, the solubility in benzene ([7]; benzene) was “sparingly”, the solubility in chloroform ([7]; chloroform) was “sparingly” and the solubility in hexane ([7]; hexane) was “sparingly”. The solubility in methanol ([7]; methanol) was “easily soluble” and the solubility in water ([7]; water) was “easily soluble”.
